Source: US20180362993A1, “ELICITOR-DERIVED PEPTIDES AND USE THEREOF” (Plant Health Care, Inc., priority 2017, published 2018)
Marks after values point to notes of the source that are not given here.

The substances below were run on corn (assay: Drought resistance in seed-coated corn). Conditions: corn seed treatment.
Assay type: in vivo
Experimental: The effectiveness of peptide treatment in reducing the effects of drought stress was assessed in corn using a seed treatment strategy. This strategy largely mirrors example 2, except that the seeds were coated with a peptide formulation rather than a foliar spray application.
Seeds were first sieved using mesh screens to a uniform size (21-23/64 inches). The seeds were then coated with a mixture of peptide, Unicoat™ seed coat polymer, and a minimal volume of water in a Hege 11 Liquid Seed Treater (Wintersteiger) according to manufacturer recommendations. Seeds were coated with one of the following: (i) 0.12 μg peptide/seed, (ii) […], or (iii) a ‘mock’ treatment that included no peptide. The amount of peptide per seed assumes complete transfer of the peptide to seed surfaces in the seed coating chamber. Losses during coating were not considered.
3.5 inch pots were filled (approximately 0.2 L per pot) with Sunshine #1 mix (SunGro Horticulture), fertilized with 14-14-14 N,P,K Osmocote (Everris), and mixed for 20 minutes using a soil mixer M-5. Seeds were planted at a depth of 0.5 inch for germination. The pots were immediately irrigated by submergence then drained after about an hour. For each treatment group, 24 replicate seeds were planted. Plants were grown in a greenhouse under 16 hour light days at ˜75° F. and 8 hour dark nights at ˜65° F. Prior to drought conditions, the plants were well-watered.
Three days after planting, the plants were randomized using a complete block design and subjected to a cyclic drought stress. Drought stress was imposed by withholding water for 2-3 days until the majority of plants were under medium to severe water stress. The severity of the stress was determined by the weight of the pot and visual determination of leaf curling. Once drought stress was attained, the pots were watered to full saturation. Full Saturation (100% pot capacity) is defined as the weight of the pot filled with water-saturated soil minus the weight of the filled pot prior to adding water. Drought stress was imposed for a total of 18 days.
At the end of the experiment (18 days after initiation of drought stress), the plant was then harvested for fresh and dry weights. Individual plants were cut near the soil surface and weighed immediately (fresh weight). The plants were then placed into labeled brown paper bags and dried in a 70° C. oven for 72 hours. A dry weight was then obtained.
The following calculation was performed on the collected data: Fresh weight at harvest and dry weight at harvest for the plants grown from peptide-treated seeds were expressed as a % change relative to the ‘mock’ treated plants.

In the case of “AGQTSGMSPMEQLMKIEADITQSLFGDQDG (P13-52 peptide) [Peptide P13-52]”, the “Result for dry weight, in words” value is reported as “positive”.

For “AGQTSGMSPMEQLMKILADITQSLLGDQDG (P13-33 peptide) [Peptide P13-33]”, the “Drought tolerance activity in corn, result in words” value was “negative”.

Same assay, conditions: corn seed treatment 0.12 μg/seed, vs mock

First: AGQTSGMSPMEQLMEIFADITQSLFGDQDR (P13-56 peptide) [Peptide P13-56]
Second: AGQTSGMSPMEQLMEIFADITQSLFGDR (P13-58 peptide) [Peptide P13-58]
The “% Change Dry Weight” value of the first is lower: 0.44% for the first, 2.83% for the second.

Going from “P13-49: P13 peptide variant tested in corn seed treatment, SEQ ID NO: 71; sequence not printed in the text (AGQTSGMSPMEQEMKIFADITQSLFGDQDG; P13-49 peptide) [Peptide P13-49]” to “P13-50: P13 peptide variant tested in corn seed treatment, SEQ ID NO: 72; sequence not printed in the text (AGQTSGMSPMEQLEKIFADITQSLFGDQDG; P13-50 peptide) [Peptide P13-50]”, the “% Change Dry Weight” value falls from 0.79% to 0.49%.

Compared with “P13-53: P13 peptide variant tested in corn seed treatment, SEQ ID NO: 75; sequence not printed in the text (AGQTSGMSPMEQLMKIFADETQSLFGDQDG; P13-53 peptide) [Peptide P13-53]”, “P13-54: P13 peptide variant tested in corn seed treatment, SEQ ID NO: 76; sequence not printed in the text (AGQTSGMSPMEQLMKIFADITQSEFGDQDG; P13-54 peptide) [Peptide P13-54]” is lower in “% Change Dry Weight” value: 0.48% for the first, −1.38% for the second.

With “P13-55: P13 peptide variant tested in corn seed treatment, SEQ ID NO: 77; sequence not printed in the text (AGQTSGMSPMEQLMKIFADITQSLEGDQDG; P13-55 peptide) [Peptide P13-55]” the “% Change Dry Weight” value was 0.81%.

Going from “AGQTSGMSPMEQLMEIFADITQSLFGDQDR (P13-56 peptide) [Peptide P13-56]” to “AGQTSGMSPMEQLMEIFADITQSLFGDR (P13-58 peptide) [Peptide P13-58]”, the “% Change Fresh Weight” value falls from 1.91% to −4.07%.

Compared with “P13-49: P13 peptide variant tested in corn seed treatment, SEQ ID NO: 71; sequence not printed in the text (AGQTSGMSPMEQEMKIFADITQSLFGDQDG; P13-49 peptide) [Peptide P13-49]”, “P13-50: P13 peptide variant tested in corn seed treatment, SEQ ID NO: 72; sequence not printed in the text (AGQTSGMSPMEQLEKIFADITQSLFGDQDG; P13-50 peptide) [Peptide P13-50]” is higher in “% Change Fresh Weight” value: −4.24% for the first, −3.95% for the second.

First: P13-53: P13 peptide variant tested in corn seed treatment, SEQ ID NO: 75; sequence not printed in the text (AGQTSGMSPMEQLMKIFADETQSLFGDQDG; P13-53 peptide) [Peptide P13-53]
Second: P13-55: P13 peptide variant tested in corn seed treatment, SEQ ID NO: 77; sequence not printed in the text (AGQTSGMSPMEQLMKIFADITQSLEGDQDG; P13-55 peptide) [Peptide P13-55]
The “% Change Fresh Weight” value of the first is higher: −2.19% for the first, −3.84% for the second.

For “P13-54: P13 peptide variant tested in corn seed treatment, SEQ ID NO: 76; sequence not printed in the text (AGQTSGMSPMEQLMKIFADITQSEFGDQDG; P13-54 peptide) [Peptide P13-54]”, the “% Change Fresh Weight” value was −4.51* %.

Same assay, conditions: corn seed treatment 1.05 μg/seed, vs mock

Going from “AGQTSGMSPMEQLMEIFADITQSLFGDQR (P13-57 peptide) [Peptide P13-57]” to “AGQTSGMSPMEQLMKILADITQSLLGDQDG (P13-33 peptide) [Peptide P13-33]”, the “% Change Dry Weight” value rises from −0.68% to 2.59%.

Going from “P13-47: P13 peptide variant tested in corn seed treatment, SEQ ID NO: 69; sequence not printed in the text (AGQTSGESPMEQLMKIFADITQSLFGDQDG; P13-47 peptide) [Peptide P13-47]” to “P13-48: P13 peptide variant tested in corn seed treatment, SEQ ID NO: 70; sequence not printed in the text (AGQTSGMSPEEQLMKIFADITQSLFGDQDG; P13-48 peptide) [Peptide P13-48]”, the “% Change Dry Weight” value falls from −1.34% to −1.83%.

“P13-51: P13 peptide variant tested in corn seed treatment, SEQ ID NO: 73; sequence not printed in the text (AGQTSGMSPMEQLMKEFADITQSLFGDQDG; P13-51 peptide) [Peptide P13-51]” was tested, and the “% Change Dry Weight” value was 0.64%.

Going from “AGQTSGMSPMEQLMEIFADITQSLFGDQR (P13-57 peptide) [Peptide P13-57]” to “AGQTSGMSPMEQLMKILADITQSLLGDQDG (P13-33 peptide) [Peptide P13-33]”, the “% Change Fresh Weight” value falls from 1.90% to −1.28%.

Going from “P13-47: P13 peptide variant tested in corn seed treatment, SEQ ID NO: 69; sequence not printed in the text (AGQTSGESPMEQLMKIFADITQSLFGDQDG; P13-47 peptide) [Peptide P13-47]” to “P13-48: P13 peptide variant tested in corn seed treatment, SEQ ID NO: 70; sequence not printed in the text (AGQTSGMSPEEQLMKIFADITQSLFGDQDG; P13-48 peptide) [Peptide P13-48]”, the “% Change Fresh Weight” value rises from −3.42% to −1.65%.

With “P13-51: P13 peptide variant tested in corn seed treatment, SEQ ID NO: 73; sequence not printed in the text (AGQTSGMSPMEQLMKEFADITQSLFGDQDG; P13-51 peptide) [Peptide P13-51]” the “% Change Fresh Weight” value was −4.70%.

With “AGQTSGMSPMEQLMKIEADITQSLFGDQDG (P13-52 peptide) [Peptide P13-52]” the “% Change Dry Weight” value was 4.49** %.

In the case of “AGQTSGMSPMEQLMKIEADITQSLFGDQDG (P13-52 peptide) [Peptide P13-52]”, the “% Change Fresh Weight” value is reported as −5.08* %.
